Measurements as given in patent US11724992B2 (Novartis AG, priority 2017, dated 2023).
Where two headings read alike, the source gives them in different places.

Tested on: IL-1β production in PMA-differentiated THP-1 cells
Experiment: IL-1β production in PMA-differentiated THP-1 cells stimulated with gramicidin (hTHP-1 assay, 2% fetal bovine serum; Procedures 1-3)
Assay type: cell-based, human
Details: read-out: hTHP-1 IC50 (Average IC50 of compounds in hTHP-1 assay)
Method in brief: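 PMA-differentiated (20 ng/ml, 16-18 h) THP-1 cells in RPMI with 2% FBS, 50,000 cells/well, preincubated 1 h with compound (final 100–0.0017 μM, 0.37% DMSO), then stimulated with 5 μM gramicidin for 2 h. Supernatant IL-1β measured by HTRF.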

[1] = hTHP-1 assay containing 2% fetal bovine serum, class symbols
[2] = Homo sapiens, THP-1, hTHP-1 assay containing 2% fetal bovine serum, class symbols

Row | Structure (SMILES) | IC50 [1] | other results
1 | CC(C)(O)c1ncc(S(N)(=O)=NC(=O)Nc2cc3c(c4c2CCC4)CCC3)s1 (stereo not shown) [Example 285, N′-((1,2,3,6,7,8-hexahydro-as-indacen-4-yl)carbamoyl)-2-(2-hydroxypropan-2-yl)thiazole-5-sulfonimidamide] | – | IC50 [2]: 40 to 200 nM
2 | CC(c1ccc(S(N)(=O)=NC(=O)Nc2c3c(cc4c2CCC4)CCC3)cc1)N(C)C (single isomer, unassigned) [Example 375, (S,R) or (S,S) or (R,S) or (R,R)-4-(1-(dimethylamino)ethyl)-N′-((1,2,3,5,6,7-hexahydro-s-indacen-4-yl)carbamoyl)benzenesulfonimidamide] | 5000 to 30000 nM | –
3 | Cc1oc(S(N)(=O)=NC(=O)Nc2c3c(cc4c2CCC4C)CCC3)cc1C(C)(C)O (single isomer, unassigned) [Example 305, (R,S) or (R,R)-4-(2-hydroxypropan-2-yl)-5-methyl-N′-((3-methyl-1,2,3,5,6,7-hexahydro-s-indacen-4-yl)carbamoyl)furan-2-sulfonimidamide; resolved from example 123] | – | IC50 [2]: 8 to 40 nM
4 | CC(C)c1cc(OC(F)F)cc(C2CC2)c1NC(=O)N=S(N)(=O)c1cnc(C(C)(C)O)s1 (single isomer, unassigned) [Example 101] | 40 to 200 nM | –
5 | CC(c1ccc(S(N)(=O)=NC(=O)Nc2c3c(cc4c2CCC4)CCC3)cc1)N(C)C (single isomer, unassigned) [Example 372, (R) or (S)-4-(1-(dimethylamino)ethyl)-N′-((1,2,3,5,6,7-hexahydro-s-indacen-4-yl)carbamoyl)benzenesulfonimidamide] | 40 to 200 nM | –
6 | CC(C)(O)c1csc(S(N)(=O)=NC(=O)Nc2c3c(c(F)c4c2CCC4)CCC3)c1 (single isomer, unassigned) [Example 207] | 200 to 1000 nM | –
7 | Cc1oc(S(N)(=O)=NC(=O)Nc2c3c(cc4c2C(C)CC4)CCC3)cc1C(C)(C)O [Example 127, Two isomers of (R,S)-and (R,R)-or (S,S)-and (S,R) 4-(2-hydroxypropan-2-yl)-5-methyl-N′-((3-methyl-1,2,3,5,6,7-hexahydro-s-indacen-4-yl)carbamoyl)furan-2-sulfonimidamide] | 40 to 200 nM | –
8 | CC(C)c1cc(C#N)cc(C(C)C)c1NC(=O)N=S(N)(=O)c1cc(C#N)cc(C(C)(C)O)c1 (single isomer, unassigned) [Example 185] | 5000 to 30000 nM | –
9 | CC(C)c1cc(C#N)cc(C(C)C)c1NC(=O)N=S(N)(=O)c1ncc(C(C)(C)O)s1 (single isomer, unassigned) [Example 130] | 40 to 200 nM | –
10 | CC(C)c1cc(F)cc(C(C)C)c1NC(=O)N=S(N)(=O)c1ccc(C(C)(C)O)s1 (single isomer, unassigned) [Example 156] | 200 to 1000 nM | –
11 | CC(C)c1cc(C#N)c(F)c(C(C)C)c1NC(=O)N=S(N)(=O)c1sc(C(C)(C)O)nc1CO (single isomer, unassigned) [Example 195] | 5000 to 30000 nM | –
12 | CC(C)c1cc(F)cc(C(C)C)c1NC(=O)N=S(N)(=O)c1cnc(C(C)(C)O)s1 (single isomer, unassigned) [Example 104] | 1000 to 5000 nM | –
13 | Cc1oc(S(N)(=O)=NC(=O)Nc2c3c(cc4c2CCC4C)CCC3)cc1C(C)(C)O (single isomer, unassigned) [Example 125] | 40 to 200 nM | –
14 | CC(C)c1cc(C#N)c(F)c(C(C)C)c1NC(=O)N=S(N)(=O)c1cnc(C(C)(C)O)s1 (single isomer, unassigned) [Example 92] | 1000 to 5000 nM | –
15 | CNCc1ccc(S(N)(=O)=NC(=O)Nc2c3c(cc4c2CCC4)CCC3)cc1 (single isomer, unassigned) [Example 314, (S) or (R)-N′-((1,2,3,5,6,7-hexahydro-s-indacen-4-yl)carbamoyl)-4-((methylamino)methyl)benzenesulfonimidamide] | 200 to 1000 nM | –
16 | CC(C)(O)c1ncc([S@@](N)(=O)=NC(=O)Nc2c3c(cc4c2CC4)CCC3)s1 (single isomer, unassigned) [Example 225] | – | IC50 [2]: 1000 to 5000 nM
17 | CN(C)Cc1ccc(S(N)(=O)=NC(=O)Nc2c3c(cc4c2CCC4)CCC3)c(F)c1 (stereo not shown) [Example 48, 4-((dimethylamino)methyl)-2-fluoro-N′-(1,2,3,5,6,7-hexahydro-s-indacen-4-ylcarbamoyl)benzene-sulfonimidamide] | – | IC50 [2]: 40 to 200 nM
18 | CC(C)c1cc(F)cc(C(C)C)c1NC(=O)N=S(N)(=O)c1cccc(C(C)(C)O)c1 (single isomer, unassigned) [Example 105] | 200 to 1000 nM | –
19 | CNS(=O)(=NC(=O)N(C)c1c2c(cc3c1CCC3)CCC2)c1cnc(C(C)(C)O)s1 (stereo not shown) [Compound 249] | – | IC50 (Homo sapiens, THP-1, hTHP-1 assay containing 2% fetal bovine serum, bound): > 30000 nM
20 | CC(C)(O)c1cc(F)c(S(N)(=O)=NC(=O)Nc2c3c(cc4c2CCC4)CCC3)s1 (stereo not shown) [Example 269, 3-Fluoro-N′-(1,2,3,5,6,7-hexahydro-s-indacen-4-ylcarbamoyl)-5-(2-hydroxypropan-2-yl)thiophene-2-sulfonimidamide] | – | IC50 [2]: 8 to 40 nM
21 | CC(c1ccc(S(N)(=O)=NC(=O)Nc2c3c(cc4c2CCC4)CCC3)cc1)N(C)C (single isomer, unassigned) [Example 376, (S,S) or (S,R) or (R,R) or (R,S)-4-(1-(dimethylamino)ethyl)-N′-((1,2,3,5,6,7-hexahydro-s-indacen-4-yl)carbamoyl)benzenesulfonimidamide] | 5000 to 30000 nM | –
22 | CC(C)c1cc(OC(F)F)cc(C(C)C)c1NC(=O)N=S(N)(=O)c1sc(C(C)(C)O)cc1F (single isomer, unassigned) [Example 95] | < 8 nM | –

Continued, in another order:

Row | IC50 [1] | Structure (SMILES) | other results
23 | 5000 to 30000 nM | Cc1cc(C(C)(C)O)ccc1S(N)(=O)=NC(=O)Nc1c2c(cc3c1CCC3)CCC2 (single isomer, unassigned) [Example 100] | –
24 | 200 to 1000 nM | CC(C)(O)c1cnc(S(N)(=O)=NC(=O)Nc2c3c(cc4c2CCC4)CCC3)s1 (single isomer, unassigned) [Example 297, (S) or (R)-N′-((1,2,3,5,6,7-hexahydro-s-indacen-4-yl)carbamoyl)-5-(2-hydroxypropan-2-yl)thiazole-2-sulfonimidamide] | –
25 | 200 to 1000 nM | CC1CCc2cc3c(c(NC(=O)N=S(N)(=O)c4cnc(C(C)(C)O)s4)c21)CCC3 (single isomer, unassigned) [Example 332, (R,R) or (R,S)-2-(2-hydroxypropan-2-yl)-N′-((3-methyl-1,2,3,5,6,7-hexahydro-s-indacen-4-yl)carbamoyl)thiazole-5-sulfonimidamide] | –
26 | 1000 to 5000 nM | CC(C)(O)c1cnc(S(N)(=O)=NC(=O)Nc2c3c(cc4c2CCO4)CCC3)s1 (single isomer, unassigned) [Example 348, (S) or (R)-5-(2-hydroxypropan-2-yl)-N′-((3,5,6,7-tetrahydro-2H-indeno[5,6-b]furan-4-yl)carbamoyl)thiazole-2-sulfonimidamide] | –
27 | < 8 nM | CC(C)(O)c1csc(S(N)(=O)=NC(=O)Nc2c3c(cc4c2CCC4)CCC3)n1 (single isomer, unassigned) [Example 306, (R) or (S)-N′-((1,2,3,5,6,7-hexahydro-s-indacen-4-yl)carbamoyl)-4-(2-hydroxypropan-2-yl)thiazole-2-sulfonimidamide] | –
28 | 8 to 40 nM | CC1CCc2c1cc1c(c2NC(=O)N=S(N)(=O)c2cnc(C(C)(C)O)s2)CCC1 (single isomer, unassigned) [Example 324, (R,S) or (R,R)-2-(2-hydroxypropan-2-yl)-N′-((1-methyl-1,2,3,5,6,7-hexahydro-s-indacen-4-yl)carbamoyl)thiazole-5-sulfonimidamide (from Example 291)] | –
29 | 1000 to 5000 nM | CC1CCc2cc3c(c(NC(=O)N=S(N)(=O)c4cnc(C(C)(C)O)s4)c21)CCC3 (single isomer, unassigned) [Example 333, (S,R) or (S,S)-2-(2-hydroxypropan-2-yl)-N′-((3-methyl-1,2,3,5,6,7-hexahydro-s-indacen-4-yl)carbamoyl)thiazole-5-sulfonimidamide] | –
30 | 8 to 40 nM | CC1CCc2cc3c(c(NC(=O)N=S(N)(=O)c4cnc(C(C)(C)O)s4)c21)CCC3 (single isomer, unassigned) [Example 334, (R,S) or (R,R)-2-(2-hydroxypropan-2-yl)-N′-((3-methyl-1,2,3,5,6,7-hexahydro-s-indacen-4-yl)carbamoyl)thiazole-5-sulfonimidamide] | –
31 | 8 to 40 nM | CC(C)(O)c1cnc(S(N)(=O)=NC(=O)Nc2c3c(cc4c2CCO4)CCC3)s1 (single isomer, unassigned) [Example 347, (R) or (S)-5-(2-hydroxypropan-2-yl)-N′-((3,5,6,7-tetrahydro-2H-indeno[5,6-b]furan-4-yl)carbamoyl)thiazole-2-sulfonimidamide] | –
32 | 8 to 40 nM | CC(C)(O)c1cc(F)c(S(N)(=O)=NC(=O)Nc2c3c(cc4c2CCC4)CCC3)s1 (single isomer, unassigned) [Example 385, (R) or (S)-3-fluoro-N′-((1,2,3,5,6,7-hexahydro-s-indacen-4-yl)carbamoyl)-5-(2-hydroxypropan-2-yl)thiophene-2-sulfonimidamide] | –
33 | < 8 nM | CC(C)(O)c1csc(S(N)(=O)=NC(=O)Nc2c3c(cc4c2CC4)CCC3)n1 (single isomer, unassigned) [Example 341, (R) or (S)-4-(2-hydroxypropan-2-yl)-N′-((2,4,5,6-tetrahydro-1H-cyclobuta[f]inden-3-yl)carbamoyl)thiazole-2-sulfonimidamide] | –
34 | 40 to 200 nM | CC(C)(O)c1ncc(S(N)(=O)=NC(=O)Nc2cc3c(c4c2CCC4)CCC3)s1 (single isomer, unassigned) [Example 419, (R) or (S)-N′-((1,2,3,6,7,8-hexahydro-as-indacen-4-yl)carbamoyl)-2-(2-hydroxypropan-2-yl)thiazole-5-sulfonimidamide] | –
